Experiment [1] deals with Podocin. The experiment in a line: Multimerization by velocity gradient centrifugation. The format is cell-based, mouse. As to conditions: limited cholesterol depletion of Podocin-expressing cells, FIG. 5B. The procedure:
PHB protein multimerization was studied by velocity gradient centrifugation and blue native gel electrophoresis [Schagger et al. (1991) Anal. Biochem. 199: 223-31]. For preparation of Podocin multimeric complexes HEK293T cells were lysed in 1 ml of Mes-buffered saline (MBS) in the presence of 1% Triton® X-100 and centrifuged for 10 minutes at 1,000×g at 4° C. After centrifugation, the supernatant was collected and SDS was added at a final concentration of 0.1% and incubated for 20 minutes on ice. Thereafter, the lysate was cleared by centrifugation for 15 minutes at 100,000×g. Four milliliters of a discontinuous sucrose gradient (40-5%) was layered on top of a 60% sucrose cushion in a Beckman ultracentrifuge tube. One milliliter of the cell lysate was adjusted with 1 ml of MBS, added on top of this gradient and subjected for centrifugation for 16 hours at 180,000×g at 4° C. in a Beckman SW-41 rotor. After centrifugation 2 ml of the supernatant were discarded and 8 fractions (500 μl each) were collected starting from the top and analyzed by SDS-PAGE.
Previously it was shown that shown that Podocin homo-oligomerizes and forms high-molecular weight complexes by homophilic interactions that require the PHB-domain [Huber et al. (2003) Hum. Mol. Genet. 12:3397-405]. MEC-2 also homo-oligomerizes (infra) as do other PHB-domain proteins [Umlauf et al. (2006) J. Biol. Chem.]. […]

The next experiment has as its system HeLa-Cx43 cells. Nature of the experiment: Ca2+-FLIPR assay, histamine-induced calcium influx. As to conditions: limited cholesterol depletion, FIG. 11D. The format is cell-based. The procedure:
Ca^2+-FLIPR Assay—HeLa-Cx43 cells were loaded with […] FLUO-4/AM and 0.04% Pluronic F-127 (both from Molecular Probes) in HBS but with 20 mM HEPES and 2.5 mM probenecid as described previously (20). After loading, cells were washed twice with HBS by an automated plate washer (Denley Cellwash, Labsystems) and transferred to the FLIPR (Molecular Devices). The FLIPR integrates an argon laser excitation source, a 96-well pipettor, and a detection system utilizing a CCD imaging camera. […] of 3× histamine concentrations were delivered within 2 seconds simultaneously to all of the wells containing […] of HBS. Fluorescence emissions from the 96-wells were monitored simultaneously at an emission wavelength of 515 nm after excitation with 488 nm (F488). Fluorescence data were collected at 0.25 Hertz, 48 seconds before and 8 minutes after stimulation, and analyzed off-line. Histamine response amplitudes were determined from the fluorescence at 3.2 minutes (peak of calcium influx) of the solvent control-subtracted and base-line-corrected traces, and averaged over 3-4 wells of same transfectants, receiving the same stimulus. EC50 values and curves were derived from fitting the function f(x)=(a−d)/(1+(x/C)nH)+d to the data by non-linear regression with a=minimum, d=maximum, C=EC50, and nH=Hill coefficient. […]

The target of experiment [2] is T1, Podocin (Mus musculus, UniProt Q91X05).
T1 construct: expressed in transfected cells; host or cells: HEK 293T
T1 sequence (Q91X05 1-385): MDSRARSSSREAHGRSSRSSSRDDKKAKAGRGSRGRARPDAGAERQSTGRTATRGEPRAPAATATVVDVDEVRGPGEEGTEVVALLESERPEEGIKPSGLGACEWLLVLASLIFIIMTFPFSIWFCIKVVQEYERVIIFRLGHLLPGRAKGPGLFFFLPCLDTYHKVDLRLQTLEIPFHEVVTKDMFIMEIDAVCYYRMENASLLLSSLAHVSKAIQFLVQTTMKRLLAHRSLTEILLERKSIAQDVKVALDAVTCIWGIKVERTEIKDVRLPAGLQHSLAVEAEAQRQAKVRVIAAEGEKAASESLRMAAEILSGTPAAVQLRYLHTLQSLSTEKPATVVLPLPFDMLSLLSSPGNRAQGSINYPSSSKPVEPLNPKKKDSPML
Nature of the experiment: Detergent-resistant membrane (DRM) fractionation by density gradient centrifugation. The format is cell-based. Conditions: limited cholesterol depletion with MBCD; readdition of cholesterol, FIG. 1D. The procedure: (§1) Preparation of Detergent-Resistant Membrane Domains and Cholesterol Measurement—For preparation of low-density Triton® X-100—insoluble membrane domains (DRM; LDF) HEK 293T cells were homogenized by 20 strokes in a Dounce homogenizer in 1 ml of MBS buffer (250 mM NaCl, 5 mM EDTA, 10 mM Tris, pH 7.4, proteinase inhibitors) in the presence of 1% Triton® X-100 and centrifuged for ten minutes at 3,000×g at 4° C. The lysates were incubated for 45 minutes on ice in the presence of 1% Triton® X-100, adjusted to 45% sucrose and pipetted at the bottom of an ultracentrifuge tube. Samples were then overlaid with a sucrose step gradient (2 ml of 30% sucrose and 1 ml of 5% sucrose in MBS) as described previously {Huber, 2003 #205}. Gradients were centrifuged for 20 hours at 200,000×g at 4° C. in a swing-out rotor, and seven fractions ([…] each) were collected starting from the top and analyzed by SDS-PAGE. Cholesterol was measured using the Amplex® Red Cholesterol Assay Kit (Molecular Probes).
(§2) Cell Culture Studies. Most cell studies used HEK 293T cells that were grown in DMEM as described [Huber et al. (2001) J. Biol. Chem. 18:18]. Cholesterol-depleted cells were prepared by growing cells in DMEM with pravastatin (8 μM) for two days and then methyl-β-cyclodextrine (MBCD; 5 mM) for 30 minutes just before the experiment. […]

A further experiment concerns MEC-2. Described as above. As to conditions: limited cholesterol depletion with MBCD, FIG. 1D. The format is cell-based, C. elegans. On the procedure: as §1, §2

For methyl-β-cyclodextrin [MBCD], the “formation of high-molecular weight complexes” value in the experiment with Podocin [1] is given as “did not interfere”. Also, the “Podocin-dependent stimulation of Ca2+ influx” value with HeLa-Cx43 cells was “abolished”. The “Podocin in DRM fractions” value at Podocin [2] was “loss of Podocin and MEC-2 from the DRM fractions”. For the same substance, the “MEC-2 in DRM fractions” value in the experiment with MEC-2 was “loss of Podocin and MEC-2 from the DRM fractions”.
